Results on 2 compounds are retold here after EP3860599B1, “(+)-ALPHA-DIHYDROTETRABENAZINE DOSAGE REGIMEN FOR TREATING MOVEMENT DISORDERS” (Adeptio Pharmaceuticals Limited, priority 2018, dated 2020).

For assay [1] the following is noted: cited from earlier work; for symptoms scored with the abnormal involuntary movement scale (AIMS): KINECT 1, tardive dyskinesia patients.
In assay [2] the test system is non-amphetamine induced rats. The assay is described as follows: Open field locomotor activity test in rats without amphetamine induction (Example 2, Study 3). The format is in vivo. Particulars: 1 mg/kg. The protocol: (§1) All animal experiments were carried out according to the National Institute of Health (NIH) guidelines for the care and use of laboratory animals, and approved by the National Animal Experiment Board, Finland. Male CD (Charles River Laboratories, Germany) at weight range of 200-250 g (165-200 g upon arrival) were used for the experiments. Animals were housed at a standard temperature (22 ± 1°C) and in a light-controlled environment (lights on from 7 am to 8 pm) with ad libitum access to food and water.
(§2) Locomotor activity of the rats was tested in open field arena. The open field test was performed during the rat light cycle and under a normal lighting evenly distributed to the test chambers. The paths of the rats were recorded by activity monitor (Med. Associates Inc.).
(§3) Dosing the vehicle, vehicle-amphetamine, (+)-α-DHTBZ or risperidone was done prior to LMA test. The rats were placed in the centre of the arena, and the path was recorded for 60 minutes.
Animals were grouped as follows: • Group 1: 10 rats treated with Vehicle • Group 2: 10 rats treated with (+)-α-DHTBZ 2.5 mg/kg • Group 3: 10 rats treated with (+)-α-DHTBZ 5 mg/kg • Group 4: 10 rats treated with risperidone 1 mg/kg

The next assay has as its system amphetamine-induced rats. The assay is described as follows: Open field locomotor activity test in amphetamine-induced rats (Example 2, Studies 1, 2 and 4). The format is in vivo. Particulars: 1 mg/kg. The procedure: as §1, §2, §3
Animals were grouped as follows: • Group 1: 10 rats treated with Vehicle (t= 0 min) and Vehicle (t= 30 min) • Group 2: 10 rats treated with Vehicle (t= 0 min) and Amphetamine (t= 30 min) • Group 3: 10 rats treated with (+)-α-DHTBZ 0.5 mg/kg (t=0 min) and Amphetamine (t= 30 min) • Group 4: 10 rats treated with (+)-α-DHTBZ 1 mg/kg (t=0 min) and Amphetamine (t= 30 min) • Group 5: 10 rats treated with (+)-α-DHTBZ 1.5 mg/kg (t=0 min) and Amphetamine (t= 30 min) • Group 6: 10 rats treated with (+)-α-DHTBZ 2 mg/kg (t=0 min) and Amphetamine (t= 30 min) • Group 7: 10 rats treated with risperidone 1 mg/kg (t=0 min) and Amphetamine (t= 30 min)
Animals were grouped as follows: • Group 1: 10 rats treated with Vehicle (t= 0 min) and Vehicle (t= 30 min) • Group 2: 10 rats treated with Vehicle (t= 0 min) and Amphetamine (t= 30 min) • Group 3: 10 rats treated with (+)-α-DHTBZ 0.1 mg/kg (t=0 min) and Amphetamine (t=30 min) • Group 4: 10 rats treated with (+)-α-DHTBZ 0.25 mg/kg (t=0 min) and Amphetamine (t=30 min) • Group 5: 10 rats treated with risperidone 1 mg/kg (t=0 min) and Amphetamine (t= 30 min)
Animals were grouped as follows: • Group 1: 10 rats treated with Vehicle (t= 0 min) and Vehicle (t= 30 min) • Group 2: 10 rats treated with Vehicle (t= 0 min) and Amphetamine (t= 30 min) • Group 3: 10 rats treated with (+)-α-DHTBZ 1 mg/kg (t=0 min) and Amphetamine (t=30 min) • Group 4: 10 rats treated with (+)-α-DHTBZ 1.5 mg/kg (t=0 min) and Amphetamine (t=30 min) • Group 5: 10 rats treated with Valbenazine 1 mg/kg (t=0 min) and Amphetamine (t=30 min) • Group 6: 10 rats treated with Valbenazine 1.5 mg/kg (t=0 min) and Amphetamine (t=30 min) • Group 7: 10 rats treated with risperidone 1 mg/kg (t=0 min) and Amphetamine (t= 30 min)

Like-named read-outs stand apart in the source and are kept apart here.

Take `COc1cc2c(cc1OC)[C@H]1C[C@@H](OC(=O)[C@@H](N)C(C)C)[C@H](CC(C)C)CN1CC2` [Valbenazine, reference compound]: the results for the “symptoms scored with the abnormal involuntary movement scale (AIMS)” value in assay [1] (50 mg/day) and in assay [1] (100 mg/day) were “did not show any significant signs of improvement” and “some reduction of symptoms”, respectively. The “Abnormal Involuntary Movement Score” value in assay [1] (KINECT 3, Tardive Dyskinesia sufferers, 80mg/day) is given as “significant improvement”.
For `Cc1nc2n(c(=O)c1CCN1CCC(c3noc4cc(F)ccc34)CC1)CCCC2` [risperidone, reference compound], in assay [2], the total movement entry is on record as “reduced total movement” and the total stereotypic behaviour entry is “reduced total stereotypic behaviour”. Further, in the assay on amphetamine-induced rats (Study 1 conclusions), the “locomotor activity when compared to the vehicle-amphetamine group” value is reported as “lower locomotor activity” and the “stereotypic behaviour when compared to the vehicle-amphetamine group” value is recorded as “reduced stereotypic behaviour”. In the assay on amphetamine-induced rats (Study 2 conclusions), the “locomotor activity when compared to the vehicle-amphetamine group” value is recorded as “lower locomotor activity” and the “stereotypic behaviour when compared to the vehicle-amphetamine group” value is given as “reduced stereotypic behaviour”.
